Experimental data from patent US20110045083A1, “USE LARCH WOOD FOR TREATING INFLAMMATION” (priority 2007, published 2011).
Several values for one entry are separate records, joined by “and”; a condition that tells them apart may be missing. Equal entries are not always repeated. Entries after “also recorded” stand apart in the source; their conditions may differ. Where two headings read alike, the source gives them in different places.

Legend:
COX-1 (purified PGHS-1) = biological target: T1, COX-1 (purified PGHS-1) (Ovis aries, UniProt P05979); assay: COX-1 assay, purified enzyme, PGE2 EIA; type: biochemical, ram; details: for inhibition at 50 µM: screening concentration 50 μM
T1 construct: purified PGHS-1 (COX-1) from ram seminal vesicles; purchased Cayman Chemical Company, Ann Arbor, Mich., USA; host or cells: ram seminal vesicles (tissue-purified)
T1 sequence (P05979 25-600): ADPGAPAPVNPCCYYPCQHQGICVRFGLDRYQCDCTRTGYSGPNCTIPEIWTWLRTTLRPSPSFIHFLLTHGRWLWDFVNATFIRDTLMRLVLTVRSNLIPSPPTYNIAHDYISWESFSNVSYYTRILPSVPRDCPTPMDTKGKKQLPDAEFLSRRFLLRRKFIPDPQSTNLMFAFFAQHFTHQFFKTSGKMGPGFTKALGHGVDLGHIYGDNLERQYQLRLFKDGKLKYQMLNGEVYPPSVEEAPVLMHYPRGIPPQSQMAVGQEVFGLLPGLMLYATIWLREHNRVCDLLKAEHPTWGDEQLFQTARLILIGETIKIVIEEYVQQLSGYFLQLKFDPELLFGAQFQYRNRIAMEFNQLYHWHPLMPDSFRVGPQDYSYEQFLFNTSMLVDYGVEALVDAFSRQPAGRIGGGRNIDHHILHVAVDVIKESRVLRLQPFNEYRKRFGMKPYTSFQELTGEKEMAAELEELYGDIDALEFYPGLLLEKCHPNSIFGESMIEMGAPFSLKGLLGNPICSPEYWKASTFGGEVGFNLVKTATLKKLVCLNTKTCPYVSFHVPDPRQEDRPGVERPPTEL
Method: (§1) Principle: The purified enzymes COX-1 and COX-2 are incubated with a defined concentration of test sample and arachidonic acid. After stopping the enzymatic reaction by addition of formic acid and dilution, the produced PGE2 is quantified by means of a PGE2 EIA kit.
(§2) Sample preparation: The test samples (extracts and pure compounds) are dissolved in ethanol. Extracts are tested in concentrations of 20 μg/ml for screening. Pure compounds are tested in concentrations of 50 μM for screening.
(§3) Incubation procedure: The assays are performed in a microtiter scale with purified PGHS-1 (COX-1) from ram seminal vesicles and purified PGHS-2 (COX-2) from sheep placental cotyledones (both: Cayman Chemical Company, Ann Arbor, Mich., USA). The incubation mixture consists of 180 μl 0.1 M TRIS/HCl-buffer (pH 8.0) (Roth, Karlsruhe, Germany), 5 μM hematin, (porcine, ICN, Aurora, Ohio, USA), 18 mM epinephrine hydrogen tartrate (Fluka, Buchs, Switzerland), 0.2 U of enzyme preparation and 50 μM Na2EDTA (only COX-2 assay, Titriplex III, Merck, Darmstadt, Germany). 10 μl of each test solution are added and the mixture is preincubated for 5 min at room temperature. The reaction is started by adding 10 μl of 5 μM arachidonic acid (Cayman Chemical Company) in EtOH p.a. and the reaction mixture is incubated at 37° C. The reaction is terminated after 20 min by addition of 10 μl of 10% formic acid.
(§4) PGE2 EIA: The concentration of PGE2, the main arachidonic acid metabolite in this reaction, is determined by a competitive PGE2 EIA kit (Assay Designs Inc., Ann Arbor, Mich., USA). All samples are diluted in EIA buffer. The EIA is incubated for 2 hours at room temperature on an orbital shaker. After a washing step, 200 μl of substrate solution are added to each well, and the EIA is incubated for 1 hour at room temperature. After addition of 50 μl stop solution, the EIA is evaluated photometrically by an ELISA microplate reader.
(§5) Inhibition of COX refers to reduction of PGE2 formation in comparison to a blank run without inhibitor. Inhibition values are means of at least 2 experiments and each sample is tested in duplicate. […] IC50 values of active samples were determined by testing at least 3 concentrations in 3 different experiments, in duplicate each. IC50 was calculated by logarithmic regression after graphical representation.

COX-2 (purified PGHS-2) = biological target: T2, COX-2 (purified PGHS-2) (Ovis aries, UniProt P79208); assay: COX-2 assay, purified enzyme, PGE2 EIA; type: biochemical, sheep; details: for inhibition at 50 µM: screening concentration 50 μM
T2 construct: purified PGHS-2 (COX-2) from sheep placental cotyledones; purchased Cayman Chemical Company, Ann Arbor, Mich., USA; host or cells: sheep placental cotyledons (tissue-purified)
T2 sequence (P79208 17-603): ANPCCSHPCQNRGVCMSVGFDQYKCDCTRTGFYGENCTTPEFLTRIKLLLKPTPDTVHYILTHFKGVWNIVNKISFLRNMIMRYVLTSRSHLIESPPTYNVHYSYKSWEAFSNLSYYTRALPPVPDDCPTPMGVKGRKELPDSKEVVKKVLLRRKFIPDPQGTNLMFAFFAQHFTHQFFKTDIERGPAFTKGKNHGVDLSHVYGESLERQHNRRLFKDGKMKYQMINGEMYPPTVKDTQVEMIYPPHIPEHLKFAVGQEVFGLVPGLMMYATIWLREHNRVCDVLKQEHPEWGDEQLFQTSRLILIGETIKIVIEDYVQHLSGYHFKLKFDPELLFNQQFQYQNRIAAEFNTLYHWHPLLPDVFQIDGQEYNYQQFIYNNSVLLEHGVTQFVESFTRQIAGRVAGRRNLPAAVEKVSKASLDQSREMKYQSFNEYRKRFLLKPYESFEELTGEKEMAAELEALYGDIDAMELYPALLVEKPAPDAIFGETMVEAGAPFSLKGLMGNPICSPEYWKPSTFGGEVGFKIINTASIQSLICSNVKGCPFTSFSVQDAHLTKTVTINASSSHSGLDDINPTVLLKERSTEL
Method: as §1, §2, §3, §4, §5

Structure (SMILES)	IC50 COX-1 (COX-1 (purified PGHS-1))	IC50 COX-1 (COX-1 (purified PGHS-1); listed as palustric acid)	inhibition at 50 µM (COX-1 (purified PGHS-1)) [%]	IC50 (COX-2 (purified PGHS-2); IC50 COX-2) [µM]	inhibition at 50 µM (COX-2 (purified PGHS-2)) [%]	IC50 COX-1 (COX-1 (purified PGHS-1); listed as larixol)	IC50 COX-2 (COX-2 (purified PGHS-2))	IC50 COX-2 (COX-2 (purified PGHS-2); listed as larixol)	IC50 COX-1 (COX-1 (purified PGHS-1); listed as dehydroabietinol)	IC50 COX-2 (COX-2 (purified PGHS-2); listed as dehydroabietinol)	IC50 (COX-2 (purified PGHS-2); read-out: IC50 COX-2)
CC(C)C1=CC2=C(CC1)C1(C)CCCC(C)(C(=O)O)C1CC2 (stereo not drawn) [Palustric acid]	Inactive	without inhibiting	13.5 ± 4.7	57.9	49.5 ± 3.5						
C=CC(C)(O)CCC1C(=C)CC(O)C2C(C)(C)CCCC12C (stereo not drawn) [Larixol]	Inactive		2.1 ± 4.7		8.7 ± 3.8	inactive	Inactive	inactive			
CC(C)c1ccc2c(c1)CCC1C(C)(CO)CCCC21C (stereo not drawn) [Dehydroabietinol]	Inactive		-1.6 ± 4.6		7.7 ± 8		Inactive		inactive	inactive	
CC(C)c1ccc2c(c1)CCC1C(C)(C(=O)O)CCCC21C (stereo not drawn) [Dehydroabietic acid]	Inactive		2.9 ± 7.8		-6 ± 9		Inactive				
C=C[C@@]1(C)CC[C@H]2C(=CC[C@@H]3[C@]2(C)CCC[C@@]3(C)C(=O)O)C1 [Isopimaric acid]	without inhibiting; also recorded: Inactive		15.7 ± 7.1		3.5 ± 6.2		without inhibiting; also recorded: Inactive				
C=CC(C)(O)CCC1C(=C)CC(OC(C)=O)C2C(C)(C)CCCC12C (stereo not drawn) [Larixyl acetate]	Inactive		0.2 ± 5.9		38.5 ± 5.9		devoid of COX-2inhibitory activity				95 µM and 95.1 µM
